Experimental data reported in PubChem BioAssay AID2060487 (Molecular Pharmacology Branch, DTP, NCI, 2025).

Tested on: 997537-175-T-J1-PDC complex spheroid viability
Assay: Anticancer human tumor 997537-175-T-J1-PDC patient-derived colon adenocarcinoma cell line growth inhibition [GQUAD]
Settings: for IC50: curve of first compound; for viability, T/C: stronger effect = lower value
Procedure, shortened: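 Viability of tumor cells grown as complex spheroids with endothelial and stromal cells, exposed to drug combinations. Top concentration at or near clinical Cmax (else 10 microM), diluted in half-log increments.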
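Further: spheroids exposed to the agents for 7 days.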
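Wherever viability, T/C is given: 100% = DMSO vehicle control viability.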

With `CCCS(=O)(=O)Nc1ccc(F)c(C(=O)c2c[nH]c3ncc(-c4ccc(Cl)cc4)cc23)c1F` + CN(C)c1ccc(Nc2c3ccc(NC(=O)CCN4CCCC4)cc3nc3cc(NC(=O)CCN4CCCC4)ccc23)cc1 the IC50 (second compound 0.0316 µM) was 2.18 µM, the IC50 (second compound 0.1 µM) was 3.14 µM and the IC50 (second compound 0.316 µM) was 4.1 µM. The IC50 (second compound 1 µM) was 4.72 µM, the IC50 (second compound 3.16 µM) was 7.03 µM and the IC50 (second compound 10 µM) was 5.84 µM. It also gave a viability, T/C (second compound 0.0316 µM, first compound 0.0316 µM) of 93.9%, a viability, T/C (second compound 0.0316 µM, first compound 0.1 µM) of 75.3% and a viability, T/C (second compound 0.0316 µM, first compound 0.316 µM) of 60.8%. For the same compound, the viability, T/C (second compound 0.0316 µM, first compound 1 µM) was 78.6%, the viability, T/C (second compound 0.0316 µM, first compound 3.16 µM) was 38.4% and the viability, T/C (second compound 0.0316 µM, first compound 10 µM) was 24.5%. For the same compound, the viability, T/C (second compound 0.1 µM, first compound 0.0316 µM) was 105%, the viability, T/C (second compound 0.1 µM, first compound 0.1 µM) was 73.1% and the viability, T/C (second compound 0.1 µM, first compound 0.316 µM) was 75.4%. For the same compound, the viability, T/C (second compound 0.1 µM, first compound 1 µM) was 70.6%, the viability, T/C (second compound 0.1 µM, first compound 3.16 µM) was 52.1% and the viability, T/C (second compound 0.1 µM, first compound 10 µM) was 32.7%. It also gave a viability, T/C (second compound 0.316 µM, first compound 0.0316 µM) of 71.3%, a viability, T/C (second compound 0.316 µM, first compound 0.1 µM) of 72.9% and a viability, T/C (second compound 0.316 µM, first compound 0.316 µM) of 81.3%. The viability, T/C (second compound 0.316 µM, first compound 1 µM) was 62.9%, the viability, T/C (second compound 0.316 µM, first compound 3.16 µM) was 59.4% and the viability, T/C (second compound 0.316 µM, first compound 10 µM) was 23.9%. It also gave a viability, T/C (second compound 1 µM, first compound 0.0316 µM) of 67%, a viability, T/C (second compound 1 µM, first compound 0.1 µM) of 55% and a viability, T/C (second compound 1 µM, first compound 0.316 µM) of 81.7%. For the same compound, the viability, T/C (second compound 1 µM, first compound 1 µM) was 43.3%, the viability, T/C (second compound 1 µM, first compound 3.16 µM) was 65.4% and the viability, T/C (second compound 1 µM, first compound 10 µM) was 26.9%. For the same compound, the viability, T/C (second compound 3.16 µM, first compound 0.0316 µM) was 70.3%, the viability, T/C (second compound 3.16 µM, first compound 0.1 µM) was 63.5% and the viability, T/C (second compound 3.16 µM, first compound 0.316 µM) was 85.1%. The viability, T/C (second compound 3.16 µM, first compound 1 µM) was 39.9%, the viability, T/C (second compound 3.16 µM, first compound 3.16 µM) was 78.9% and the viability, T/C (second compound 3.16 µM, first compound 10 µM) was 42.3%. The viability, T/C (second compound 10 µM, first compound 0.0316 µM) was 71.3%, the viability, T/C (second compound 10 µM, first compound 0.1 µM) was 62.6% and the viability, T/C (second compound 10 µM, first compound 0.316 µM) was 63.5%. The viability, T/C (second compound 10 µM, first compound 1 µM) was 56%, the viability, T/C (second compound 10 µM, first compound 3.16 µM) was 74.9% and the viability, T/C (second compound 10 µM, first compound 10 µM) was 36.4%.
